Assays:
Assay in all cases: X-ray crystal structure of complex, […] A
Format in all cases: binding
[1] = molecular target: tmMBP3 (Thermotoga maritima, UniProt G4FGN8); conditions: co-crystal, 0.4 M sodium thiocyanate; substrate site S1-S2
[2] = molecular target: tmMBP1 (Thermotoga maritima, UniProt Q9X0T1); conditions: co-crystal, 0.1 M sodium citrate; substrate site S1-S4
[3] = molecular target: tmMBP2 (Thermotoga maritima, UniProt Q9S5Y1); conditions: co-crystal, bis-tris pH 5.5; substrate site S1-S4

Structure (SMILES)	X-ray crystal structure of complex, 2.15 A; SAXS [1]	X-ray crystal structure of complex, 1.50 A; SAXS [2]	X-ray crystal structure of complex, 1.50 A; SAXS [3]
OC[C@H]1O[C@H](O[C@H]2[C@H](O)[C@@H](O)C(O)O[C@@H]2CO)[C@H](O)[C@@H](O)[C@@H]1O (stereo partly drawn) [maltose]	tmMBP3-maltose complex (6DTQ)	–	–
OC[C@H]1O[C@H](O[C@H]2[C@H](O)[C@@H](O)[C@@H](O[C@H]3[C@H](O)[C@@H](O)[C@@H](O[C@H]4[C@H](O)[C@@H](O)C(O)O[C@@H]4CO)O[C@@H]3CO)O[C@@H]2CO)[C@H](O)[C@@H](O)[C@@H]1O (stereo partly drawn) [maltotetraose]	–	tmMBP1-maltotetraose complex (6DTU)	tmMBP2-maltotetraose complex (6DTS)
